Target: NotF (Aspergillus sp. MF297-2, UniProt E0Y3X1)
Format: binding
Details: ternary complex with brevianamide F; non-hydrolysable DMAPP analogue

NotF, sequence (E0Y3X1 whole entry): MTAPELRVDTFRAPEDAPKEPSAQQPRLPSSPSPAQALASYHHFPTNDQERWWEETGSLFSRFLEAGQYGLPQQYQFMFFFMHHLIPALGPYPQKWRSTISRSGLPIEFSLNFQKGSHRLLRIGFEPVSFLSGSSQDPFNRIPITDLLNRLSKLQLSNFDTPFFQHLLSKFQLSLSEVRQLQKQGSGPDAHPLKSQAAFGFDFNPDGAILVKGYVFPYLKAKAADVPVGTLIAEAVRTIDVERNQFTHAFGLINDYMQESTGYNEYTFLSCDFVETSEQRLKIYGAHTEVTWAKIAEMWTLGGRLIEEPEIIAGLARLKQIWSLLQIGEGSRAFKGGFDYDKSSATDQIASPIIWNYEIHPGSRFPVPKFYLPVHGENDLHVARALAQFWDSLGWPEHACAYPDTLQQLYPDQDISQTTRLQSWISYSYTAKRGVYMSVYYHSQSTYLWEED

SMILES: CC(C)=CCSP(=O)(O)OP(=O)(O)O [dimethylallyl S-thiolodiphosphate]
- X-ray crystal structure (3.0 A), co-crystallisation: a non-hydrolysable DMAPP analog, dimethylallyl S-thiolodiphosphate (DMSPP), was determined

Source: publication PMC9831672 (Journal of the American Chemical Society, 2022)
